Test results: ChEMBL document CHEMBL3112428, “Biological evaluation of diazene derivatives as anti-tubercular compounds” (Eur J Med Chem, 2014)
≈ marks a conversion by molar mass, not a printed value. Calls of active or inactive are those of the source. No cut-off for these calls is given here.

Key:
[1] = tested on: Mycobacterium tuberculosis; experiment: Antituberculosis activity against Mycobacterium tuberculosis H37Rv ATCC 27294 assessed as inhibition of bacterial replication after 6 days by luminometry analysis; format: functional, organism-based; details: H37Rv ATCC 27294, 144 h
[2] = Genotoxicity in mouse J774A1 cells assessed as ratio of genomic DNA present in tail and head at 0.1 to 10 ug/ml after 24 hrs by comet assay; format: toxicity, cell-based; details: j774.a1, 24 h
Mycobacterium ulcerans = experiment: Antituberculosis activity against Mycobacterium ulcerans 1615 expressing lux gene assessed as inhibition of bacterial replication after 6 days by luminometry analysis; format: functional; details: Mycobacterium ulcerans, 1615, 144 h
[3] = tested on: Mycobacterium avium subsp. paratuberculosis; experiment: Antituberculosis activity against Mycobacterium avium ssp. paratuberculosis ATCC 19698 expressing lux gene assessed as inhibition of bacterial replication after 6 days by luminometry analysis; format: functional, organism-based; details: ATCC 19698, 144 h
[4] = Antituberculosis activity against Mycobacterium avium ssp. avium ATCC 15769 expressing lux gene assessed as inhibition of bacterial replication after 6 days by luminometry analysis; format: functional, Mycobacterium avium subsp. avium
[5] = tested on: Mycobacterium tuberculosis; experiment: Antituberculosis activity against Mycobacterium tuberculosis H37Rv expressing lux gene assessed as inhibition of bacterial replication after 6 days by luminometry analysis; format: functional, organism-based; details: 144 h
[6] = tested on: Mycobacterium tuberculosis; experiment: Antituberculosis activity against Mycobacterium tuberculosis H37Rv ATCC 27294 assessed as inhibition of bacterial replication at < 10 ug/ml after 6 days by luminometry analysis relative to control; format: functional
[7] = Selectivity index, ratio of IC50 for mouse J774A1 cells to IC50 for Mycobacterium tuberculosis H37Rv expressing pSMT1; format: toxicity, cell-based, J774.A1; details: read-out: Ratio IC50
[8] = Cytotoxicity against mouse J774A1 cells after 24 hrs by neutral red uptake assay; format: cell-based; details: J774.A1, 24 h
[9] = tested on: Mycobacterium tuberculosis; experiment: Antituberculosis activity against Mycobacterium tuberculosis H37Rv expressing lux gene infected in mouse J774A1 cells assessed as inhibition of bacterial replication at 12.5 ug/ml after 4 days by luminometry analysis; format: functional; details: J774.A1, 96 h
[10] = tested on: Mycobacterium tuberculosis; experiment: Antituberculosis activity against Mycobacterium tuberculosis H37Rv expressing lux gene infected in mouse J774A1 cells assessed as inhibition of bacterial replication at 0.78 to 6.25 ug/ml after 4 days by luminometry analysis; format: functional, organism-based; details: J774.A1
[11] = tested on: Mycobacterium tuberculosis; experiment: Antituberculosis activity against Mycobacterium tuberculosis H37Rv expressing lux gene infected in mouse J774A1 cells assessed as inhibition of bacterial replication at 3.13 ug/ml after 4 days by luminometry analysis; format: functional; details: J774.A1, 96 h
[12] = tested on: Mycobacterium tuberculosis; experiment: Antituberculosis activity against Mycobacterium tuberculosis H37Rv expressing lux gene infected in mouse J774A1 cells assessed as inhibition of bacterial replication at 1.56 ug/ml after 4 days by luminometry analysis; format: functional; details: J774.A1, 96 h

Row | Compound | IC50 [1] | IC90 [1] | IC99 [1] | other results
1 | O=C(/N=N/c1nccc(C(F)(F)F)n1)Nc1ccccc1 | > 50 µg/mL | > 50 µg/mL | > 50 µg/mL | –
2 | O=C(/N=N/C(=O)Nc1ccc(F)cc1F)NCc1ccncc1 | 33.3 µg/mL (≈ 104 µM) | > 50 µg/mL | > 50 µg/mL | –
3 | O=C(/N=N/c1ccccn1)Nc1ccccc1 | 27.1 µg/mL (≈ 120 µM) | 46.9 µg/mL (≈ 207 µM) | > 50 µg/mL | –
4 | CCOC(=O)/N=N/C(=O)Nc1ccc(C)cc1 | 2.72 µg/mL (≈ 11.6 µM) | 4.07 µg/mL (≈ 17.3 µM) | 7.97 µg/mL | Activity [2]: Non-toxic; IC50 (Mycobacterium ulcerans): 7.25 µg/mL (≈ 30.8 µM); IC50 [3]: 4.89 µg/mL (≈ 20.8 µM); IC50 [4]: 3.14 µg/mL (≈ 13.3 µM); IC50 [5]: 2.72 µg/mL (≈ 11.6 µM); fold change (FC) [6]: 10; selectivity ratio [7]: 7.63; IC50 [8]: 20.8 µg/mL (≈ 88.2 µM); inhibition at 12.5 µg/mL [9]: 40.3%
5 | O=C(/N=N/c1c(F)c(F)c(F)c(F)c1F)Nc1ccccc1 | 24.3 µg/mL (≈ 77.1 µM) | 45.3 µg/mL (≈ 144 µM) | > 50 µg/mL | –
6 | O=C(/N=N/c1ccc([N+](=O)[O-])cc1)Nc1ccccc1 | 2.75 µg/mL (≈ 10.2 µM) | 6.23 µg/mL (≈ 23.1 µM) | 16.5 µg/mL | inhibition [10]: inactive; Activity [2]: Non-toxic; IC50 (Mycobacterium ulcerans): 5.67 µg/mL (≈ 21 µM); IC50 [3]: 3.56 µg/mL (≈ 13.2 µM); IC50 [4]: 2.98 µg/mL (≈ 11 µM); IC50 [5]: 2.75 µg/mL (≈ 10.2 µM); fold change (FC) [6]: 10; selectivity ratio [7]: 5.23; IC50 [8]: 14.4 µg/mL (≈ 53.2 µM)
7 | O=C(/N=N/C(=O)Nc1ccc(F)cc1)NCc1ccncc1 | > 50 µg/mL | > 50 µg/mL | > 50 µg/mL | –
8 | CCOC(=O)/N=N/C(=O)Nc1ccccc1 | 17.2 µg/mL (≈ 77.8 µM) | 33.8 µg/mL (≈ 153 µM) | > 50 µg/mL | –
9 | O=C(/N=N/c1ccc(F)cc1)Nc1ccccc1 | 45.2 µg/mL (≈ 186 µM) | 49.2 µg/mL (≈ 202 µM) | > 50 µg/mL | –
10 | COc1ccc(/N=N/C(=O)Nc2ccccc2)cc1 | 12.1 µg/mL (≈ 47.3 µM) | 38.4 µg/mL (≈ 150 µM) | 42.2 µg/mL | –
11 | O=C(/N=N/C(=O)Nc1ccc(F)cc1)NCc1cccnc1 | > 50 µg/mL | > 50 µg/mL | > 50 µg/mL | –
12 | COC(=O)/N=N/C(=O)Nc1ccc(OC)cc1 | 14.3 µg/mL (≈ 60.4 µM) | 32.4 µg/mL (≈ 137 µM) | > 50 µg/mL | –
13 | O=C(/N=N/c1ccc(Cl)cc1)Nc1ccccc1 | 15.6 µg/mL (≈ 59.9 µM) | 41.4 µg/mL (≈ 159 µM) | 49.3 µg/mL | –
14 | NNC(=O)c1ccncc1 [ISONIAZID] | 0.04 µg/mL (≈ 0.292 µM) | 0.11 µg/mL (≈ 0.802 µM) | 0.13 µg/mL | –
15 | O=C(/N=N/C(=O)Nc1ccc(F)cc1F)NCc1cccnc1 | 38.6 µg/mL (≈ 121 µM) | > 50 µg/mL | > 50 µg/mL | –
16 | O=C(/N=N/c1ccc(C(F)(F)F)cc1)Nc1ccccc1 | 0.24 µg/mL (≈ 0.818 µM) | 5.29 µg/mL (≈ 18 µM) | 6.24 µg/mL | inhibition at 3.13 µg/mL [11]: 74.4%; inhibition at 1.56 µg/mL [12]: 31.7%; Activity [2]: Non-toxic; IC50 (Mycobacterium ulcerans): 3.78 µg/mL (≈ 12.9 µM); IC50 [3]: 0.98 µg/mL (≈ 3.34 µM); IC50 [4]: 1.03 µg/mL (≈ 3.51 µM); IC50 [5]: 0.24 µg/mL (≈ 0.818 µM); fold change (FC) [6]: 10; selectivity ratio [7]: 30.2; IC50 [8]: 7.41 µg/mL (≈ 25.3 µM)
